Measured values as given in PMC3907542 (PLoS ONE, 2014).
Several values for one entry are separate records, joined by “and”; a condition that tells them apart may be missing. Equal entries are not always repeated. Where two headings read alike, the source gives them in different places.

What was measured:
[1] = test system: CYP3A; assay: in vitro; conditions: rat, rat liver microsomes, pH 7.4, probe nifedipine
Procedure: (§1) The preparation of rat liver microsome (RLM) suspensions were performed as previously reported [38]. […] Briefly, the incubation mixtures (total volume 0.2 ml) contained microsomal protein [...

[2] = test system: plasma proteins; set-up: method as in earlier work; conditions: plasma protein binding; ref 1 (Tang Y et al); cited from earlier work
[3] = test system: rat plasma proteins; assay: Plasma protein binding of nifedipine in vitro with or without baicalin (ultrafiltration); assay type: in vitro ADME; conditions: double reciprocal plot, baicalin 250-2000 mg/L
[4] = test system: CYP3A; conditions: Lineweaver-Burk plot, RLMs, nifedipine as substrate
Procedure: as §1

[5] = Pharmacokinetics of baicalin in rats (plasma Cmax); assay type: in vivo; conditions: Sprague Dawley, rat, iv, read-out: C max of baicalin
Procedure: All pharmacokinetic data were obtained from 12 animals.
The concentration of baicalin in the blood samples was determined using a slightly modified high-performance liquid chromatography (HPLC) protocol with UV detection at 278 nm. Briefly, 100 µl methanol was added to 25 µl of the blood sample. […] The quantitation limits of baicalin in the rat plasma were 5.86 mg/L.

O=C(O)[C@H]1O[C@@H](Oc2cc3oc(-c4ccccc4)cc(=O)c3c(O)c2O)[C@H](O)[C@@H](O)[C@@H]1O [baicalin, 5,6-Dihydroxy-flavone-7-O-glucuronide]
Ki at 30 min [1]: 146 µM and 64.9 µg/mL
association constant (KA) [2]: 121000 L/mol
type of interaction between nifedipine and baicalin for rat plasma proteins [3]: competitive
type of inhibition of CYP3A [4]: competitive
Cmax ([5]; baicalin 0.225 g/kg i.v.): 755 µg/mL
Cmax ([5]; baicalin 0.45 g/kg i.v.): 1280 µg/mL
